From ChEMBL document CHEMBL1201862, “PubChem BioAssay data set” (2004)
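Compound exposure: 48 hours, 5 concentrations, 96-well plates. GI50 marks 50% less growth.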 Active and inactive are the calls of the source. No stated cut-off is given here; in the data, active = GI50 up to about 1.1 µM and inactive = higher.

Assays:
Assay in all cases: NCI-60 cell line screen, 48 h
COLO 205 = test system: COLO 205
HCT-116 = test system: HCT-116
HT-29 = test system: HT-29
NCI-H23 = test system: NCI-H23
UACC-62 = test system: UACC-62
OVCAR-4 = test system: OVCAR-4
HL-60 = test system: HL-60
TK-10 = test system: TK-10
EKVX = test system: EKVX
OVCAR-5 = test system: OVCAR-5
OVCAR-3 = test system: OVCAR-3
A549 = test system: A549
SK-OV-3 = test system: SK-OV-3
HOP-92 = test system: HOP-92
786-0 = test system: 786-0
OVCAR-8 = test system: OVCAR-8
KM12 = test system: KM12
NCI/ADR-RES = test system: NCI/ADR-RES

Measured: GI50

CC1(C)OC(C(N)=O)=C(C(N)=O)O1
inactive: COLO 205 > 100 µM | HCT-116 > 100 µM | HT-29 > 100 µM | NCI-H23 > 100 µM | UACC-62 > 100 µM | OVCAR-4 > 100 µM | HL-60 > 100 µM | TK-10 > 100 µM | EKVX > 100 µM | OVCAR-5 > 100 µM | OVCAR-3 > 100 µM | A549 > 100 µM | SK-OV-3 > 100 µM | HOP-92 > 100 µM | 786-0 > 100 µM | OVCAR-8 > 100 µM | KM12 > 100 µM

COC(=O)[C@]1(C)CCCC2(C)C1CC[C@H]1C=C(C)[C@H]3CCC12C3 (stereo partly specified)
inactive: COLO 205 > 100 µM | HCT-116 40.3 µM | HT-29 49.9 µM | NCI-H23 > 100 µM | UACC-62 > 100 µM | OVCAR-4 > 100 µM | HL-60 86.1 µM | TK-10 > 100 µM | OVCAR-5 > 100 µM | OVCAR-3 > 100 µM | A549 > 100 µM | SK-OV-3 > 100 µM | HOP-92 > 100 µM | 786-0 > 100 µM | OVCAR-8 > 100 µM | KM12 > 100 µM

COc1ccc(C(=O)C(C(=O)C(=O)NCCCNC(=O)C(=O)C(C(=O)c2ccc(OC)cc2)c2ccc(OC)cc2)c2ccc(OC)cc2)cc1 (stereo unspecified)
inactive: COLO 205 > 100 µM | HCT-116 > 100 µM | HT-29 > 100 µM | NCI-H23 > 100 µM | UACC-62 > 100 µM | OVCAR-4 > 100 µM | HL-60 > 100 µM | TK-10 > 100 µM | EKVX > 100 µM | OVCAR-5 > 100 µM | OVCAR-3 > 100 µM | A549 > 100 µM | SK-OV-3 > 100 µM | HOP-92 > 100 µM | 786-0 > 100 µM | OVCAR-8 > 100 µM | KM12 > 100 µM

[O-]c1on[n+]2c1c(Nc1ccc(Cl)cc1)nc1ccccc12
inactive: COLO 205 > 100 µM | HCT-116 > 100 µM | HT-29 > 100 µM | NCI-H23 > 100 µM | UACC-62 > 100 µM | OVCAR-4 > 100 µM | HL-60 > 100 µM | TK-10 > 100 µM | EKVX > 100 µM | OVCAR-5 > 100 µM | OVCAR-3 > 100 µM | A549 > 100 µM | SK-OV-3 > 100 µM | HOP-92 > 100 µM | 786-0 > 100 µM | OVCAR-8 > 100 µM | KM12 > 100 µM

O=[N+]([O-])c1ccc(Nc2cccc3c4cc[nH]c(-c5ccccc5)c-4nc23)c([N+](=O)[O-])c1
inactive: COLO 205 > 100 µM | HCT-116 > 100 µM | HT-29 > 100 µM | NCI-H23 > 100 µM | UACC-62 93.5 µM | NCI/ADR-RES > 100 µM | OVCAR-4 > 100 µM | HL-60 > 100 µM | EKVX > 100 µM | OVCAR-5 > 100 µM | OVCAR-3 > 100 µM | A549 > 100 µM | SK-OV-3 > 100 µM | HOP-92 > 100 µM | OVCAR-8 > 100 µM | KM12 > 100 µM

COC(=O)C1CC2(c3ccccc3)C(=O)c3ccccc3N2O1 (stereo unspecified)
inactive: COLO 205 98.4 µM | HCT-116 46.9 µM | HT-29 33.3 µM | NCI-H23 > 100 µM | UACC-62 34 µM | OVCAR-4 > 100 µM | HL-60 28.9 µM | TK-10 > 100 µM | EKVX > 100 µM | OVCAR-5 > 100 µM | OVCAR-3 70.6 µM | A549 > 100 µM | SK-OV-3 > 100 µM | HOP-92 49.5 µM | 786-0 35.4 µM | OVCAR-8 41.9 µM | KM12 72.4 µM

O=c1ccc2ccccc2o1 [COUMARIN]
inactive: COLO 205 > 100 µM | HCT-116 > 100 µM | HT-29 > 100 µM | NCI-H23 > 100 µM | UACC-62 > 100 µM | OVCAR-4 > 100 µM | HL-60 > 100 µM | TK-10 > 100 µM | EKVX > 100 µM | OVCAR-5 > 100 µM | OVCAR-3 > 100 µM | A549 > 100 µM | SK-OV-3 > 100 µM | HOP-92 > 100 µM | 786-0 > 100 µM | OVCAR-8 > 100 µM | KM12 > 100 µM

CC1=NN(C(=O)c2ccc(Cl)cc2)C(=O)/C1=C/c1cccc([N+](=O)[O-])c1
inactive: COLO 205 > 100 µM | HCT-116 > 100 µM | HT-29 > 100 µM | NCI-H23 > 100 µM | UACC-62 > 100 µM | OVCAR-4 > 100 µM | HL-60 > 100 µM | TK-10 > 100 µM | EKVX > 100 µM | OVCAR-5 > 100 µM | OVCAR-3 > 100 µM | A549 > 100 µM | SK-OV-3 > 100 µM | HOP-92 > 100 µM | 786-0 > 100 µM | OVCAR-8 > 100 µM | KM12 > 100 µM

COC(=O)C1=C(C(=O)OC)SC(=C(/N=N/c2ccccc2)c2ccccc2)S1
inactive: COLO 205 > 100 µM | HCT-116 > 100 µM | HT-29 > 100 µM | NCI-H23 > 100 µM | UACC-62 > 100 µM | OVCAR-4 > 100 µM | HL-60 > 100 µM | TK-10 > 100 µM | EKVX > 100 µM | OVCAR-5 > 100 µM | OVCAR-3 61.2 µM | A549 > 100 µM | SK-OV-3 > 100 µM | HOP-92 > 100 µM | 786-0 50.8 µM | OVCAR-8 > 100 µM | KM12 > 100 µM

CCOC(=O)/C(C#N)=C(N)/C(=N\Nc1cccc(C(F)(F)F)c1)C(=O)OCC
inactive: COLO 205 > 100 µM | HCT-116 > 100 µM | HT-29 > 100 µM | NCI-H23 > 100 µM | UACC-62 > 100 µM | OVCAR-4 > 100 µM | HL-60 75.9 µM | TK-10 > 100 µM | EKVX > 100 µM | OVCAR-5 > 100 µM | OVCAR-3 > 100 µM | A549 > 100 µM | SK-OV-3 > 100 µM | HOP-92 > 100 µM | 786-0 > 100 µM | OVCAR-8 > 100 µM

O=P(c1ccccc1)(c1ccccc1)C1CC=C(c2ccccc2)C2(CCCC2)C1 (stereo unspecified)
inactive: COLO 205 22.8 µM | HCT-116 45 µM | HT-29 59.2 µM | NCI-H23 9.44 µM | UACC-62 37.6 µM | OVCAR-4 29.6 µM | HL-60 21.6 µM | TK-10 72.3 µM | EKVX > 100 µM | OVCAR-5 29.7 µM | OVCAR-3 49.1 µM | A549 40.3 µM | SK-OV-3 > 100 µM | HOP-92 12.5 µM | 786-0 98.9 µM | OVCAR-8 83.4 µM | KM12 40.4 µM

CCOC(=O)Nc1ccc(S(=O)(=O)OC)cc1.CCOC(=O)Nc1ccc(S(=O)(=O)OC)cc1.NC(=O)NCCO
inactive: COLO 205 30.9 µM | HCT-116 21.3 µM | HT-29 31.8 µM | NCI-H23 > 50 µM | UACC-62 > 50 µM | OVCAR-4 41.9 µM | HL-60 16.7 µM | TK-10 48 µM | EKVX > 50 µM | OVCAR-5 > 50 µM | OVCAR-3 > 50 µM | A549 > 50 µM | SK-OV-3 > 50 µM | HOP-92 > 50 µM | 786-0 19.9 µM | OVCAR-8 42.3 µM | KM12 > 50 µM
